# Results reported in patent US20230331655A1, “HYDROXYN[…] AND METHODS OF USE THEREOF” (UNIVERSITY OF MARYLAND, BALTIMORE, priority 2020, published 2023).
# Entries after “also recorded” stand apart in the source; their conditions may differ.
# Assays:
# Assay type in all cases: in vivo, mouse
# Male C57BL/6J mice [1] = assay: sub-threshold social defeat stress in mice previously exposed to morphine
# Excerpt: (§1) Animals: Male C57BL/6J mice (8 weeks old, Jackson laboratories) were kept in a temperature and humidity-controlled environment and maintained in a 12:12 hr light/dark cycle (lights on at 7:00 AM). Mice were singly-housed for all the studies due to increased aggression following opioid administration and were randomly assigned to treatment groups.
# Drugs: (2R,6R)-HNK hydrochloride was synthesized and characterized. Absolute and relative stereochemistry for (2R,6R)-HNK was confirmed by small molecule x-ray crystallography. For the intraperitoneal injections, drugs were dissolved in 0.9% saline and given in a volume of 5 ml/kg. […]
# Social interaction test: Following the sub-threshold social defeat stress, on day 16, test mice were screened for susceptibility in a social interaction/avoidance choice test. […] The time spent interacting (nose within close proximity of the cage) with the “stranger” mouse versus the empty cage was analyzed using TopScan video tracking software (CleverSys, Reston, Virginia). % Social Interaction was calculated as the time spent interacting with stranger divided by the total time interacting with the end-chamber cages×100.
# Sucrose preference: Following the social interaction test, mice were assessed for sucrose preference in their home cages. […]
# mice = assay: overt adverse effects after oral administration
# Male C57BL/6J mice [2] = assay: naloxone-precipitated morphine withdrawal symptoms; details: 10 mg/kg i.p. 10 min before naloxone 1 mg/kg
# Excerpt: as §1
# Drugs: (2R,6R)-HNK hydrochloride was synthesized and characterized. Absolute and relative stereochemistry for (2R,6R)-HNK was confirmed by small molecule x-ray crystallography. For the intraperitoneal injections, drugs were dissolved in 0.9% saline and given in a volume of 5 ml/kg.
# Precipitated morphine withdrawal symptoms: Mice were given a single injection of saline or morphine (10 mg/kg) in their home cages for 4 days. On Day 5, 1 hr and 50 min after their last saline or morphine injection, mice were given a single injection of saline or (2R,6R)-HNK (10 mg/kg) and 10 min later were given another injection of either saline or the opioid receptor antagonist naloxone (1 mg/kg, i.p.). The mice were immediately placed in plexiglass cylinders and their behaviors were monitored and live-scored for 25 min by an experimenter blind to any treatment conditions. Behaviors that were scored included: number of jumps (escape behavior), number of paw tremors, and occurrence (1 point) or not in each 5-min interval for the following symptoms: stereotypic sniffing, stereotypic rearing, eye ptosis, piloerection, head nodding and swallowing (FIGS. 9A-9H). An average score for each animal was given after analyzing all the withdrawal symptoms (FIG. 10).
smiles,measurement,setting,value
"N[C@@]1(c2ccccc2Cl)CCC[C@@H](O)C1=O [(2R,6R)-HNK, (2R,6R)-hydroxynorketamine]","stress susceptibility phenotypes / emotional deficits (social interaction, sucrose preference, female urine sniffing, untorn nestlet weight)","Male C57BL/6J mice [1]; 10 mg/kg i.p. 2 hours after sub-threshold social defeat, mice previously exposed to morphine 10 mg/kg",reverses emotional deficits; also recorded: reversed stress susceptibility phenotypes
same,reinstatement of maladaptive behaviors after brief re-exposure to stress,"Male C57BL/6J mice [1]; 10 mg/kg i.p. after the first defeats, 1 min re-exposure",prevents reinstatement
same,fold higher than doses required for antidepressant-relevant effects (dose without overt adverse effects),mice,at least 9 fold
same,oral doses without overt adverse effects,mice,up to 450 mg/kg
same,average precipitated withdrawal symptoms of morphine,Male C57BL/6J mice [2],overall reduction
same,escape-related jumping behavior,Male C57BL/6J mice [2],increasing the escape-related jumping behavior
same,paw tremors,Male C57BL/6J mice [2],decreased paw tremors
same,somatic symptoms following naloxone-precipitated morphine withdrawal,Male C57BL/6J mice [2],decreases somatic symptoms
